From patent US5945440A, “Indolocarbazole imides and the use thereof” (priority 1992, dated 1999)

Legend:
[1] = literature / other filings; cited from earlier work
[2] = test system: human tumour cells, ovarian 2; assay: colony formation of human tumour cells: ovarian 2; format: cell-based
Procedure: (§1) For this test, human tumour cells are kept as solid tumour by passage on the nude mouse. For the test, an individual cell suspension is prepared and the cells then plated out in dishes containing soft agar. Under these conditions, the tumour cells multiply and form colonies.

[3] = molecular target: T1, MLC kinase (myosin light-chain kinase) (Gallus gallus, UniProt P11799); assay: inhibition of MLC kinase, in vitro enzyme test (32P phosphate incorporation); format: biochemical, chicken (stomach)
T1 construct: MLC kinase was purified from chicken stomach; from tissue; host or cells: chicken stomach (gizzard smooth muscle)
Procedure: Inhibition of the enzyme MLC kinase (EC 3.6.1.3; kinase of the light myosin chain; myosin light-chain kinase).
The inhibition of MLC kinase was measured in an in vitro enzyme test.
The reaction was initiated by the addition of 1 nM MLC kinase. After incubation for 20 minutes at 30° C., the reaction was stopped with TCA and the samples then filtered off. The phosphate incorporation took place by means of Cerenkov counting of the filter.

[4] = test system: human tumour cells, lung (small cell 1); assay: colony formation of human tumour cells: lung (small cell 1); format: cell-based
Procedure: as §1

[5] = test system: human tumour cells, gastric 2; assay: colony formation of human tumour cells: gastric 2; format: cell-based
Procedure: as §1

[6] = test system: HIV; assay: phorbol ester-induced HIV reactivation, viral protein p24 by ELISA; format: cell-based; conditions: Human immunodeficiency virus 1; U1 cells, PMA stimulation; average value ± SD; n = 3; read-out: inhibition of the HIV production IC50, p24 expression
Procedure: (§2) In the case of the establishment of this hypothesis, use was made of the promonocytic cell line U1.
(§3) Without stimulation, no formation of HIV can be measured in these cells but, after 15 minutes stimulation with the phorbol ester PMA, it results in a massive production of HIV.
(§4) Some of the PKC inhibitors according to the present invention were investigated in this model. As a measure for the HIV production, either with the help of an ELISA test there was determined the viral protein p24 or with the help of an indicator cell, there was measured the HIV-induced formation of syncytia (giant cells produced by the fusion of individual cells).

[7] = test system: human tumour cells, colorectal 1; assay: colony formation of human tumour cells: colorectal 1; format: cell-based
Procedure: as §1

[8] = test system: human tumour cells, ovarian 3; assay: colony formation of human tumour cells: ovarian 3; format: cell-based
Procedure: as §1

[9] = test system: HIV; assay: HIV production in PMA-stimulated promonocytic U1 cells (both methods); format: cell-based; conditions: both test methods
Procedure: as §2, §3, §4

[10] = test system: human tumour cells, melanoma 2; assay: colony formation of human tumour cells: melanoma 2; format: cell-based
Procedure: as §1

[11] = test system: HIV; assay: phorbol ester-induced HIV reactivation, HIV-induced syncytia formation with indicator cell; format: cell-based; conditions: Human immunodeficiency virus 1; U1 cells, PMA stimulation; average value; n = 2; read-out: inhibition of the HIV production IC50, syncytia formation
Procedure: as §2, §3, §4

[12] = test system: human tumour cells, melanoma 3; assay: colony formation of human tumour cells: melanoma 3; format: cell-based
Procedure: as §1

[13] = test system: human tumour cells, ovarian 1; assay: colony formation of human tumour cells: ovarian 1; format: cell-based
Procedure: as §1

[14] = test system: promonocytic cell line U1; assay: control experiments for cytotoxic action in the HIV model; format: cell-based
[15] = test system: human tumour cells, lung (large cell); assay: colony formation of human tumour cells: lung (large cell); format: cell-based
Procedure: as §1

[16] = test system: human tumour cells, pancreas 1; assay: colony formation of human tumour cells: pancreas 1; format: cell-based
Procedure: as §1

[17] = test system: human tumour cells, prostata 1; assay: colony formation of human tumour cells: prostata 1; format: cell-based
Procedure: as §1

[18] = molecular target: protein kinase C; assay: inhibition of protein kinase C, enzyme test; format: biochemical; conditions: read-out: inhibition of the protein kinases, C-kinase IC50
Procedure: In order to ascertain whether it is a question of a selective inhibition of MLC kinase, the compounds were also investigated in other enzyme tests for protein kinase, including tests for protein kinase C. The results from the PKC test are also given in the following Table I. Furthermore, the Table contains selectivity factors which were calculated by the determination of the ratios of the IC50 values.

[19] = test system: human tumour cells; assay: colony test, human tumour cells in soft agar (tumour types in general); format: cell-based; conditions: certain tumour types
Procedure: as §1

[20] = test system: human tumour cells, melanoma 1; assay: colony formation of human tumour cells: melanoma 1; format: cell-based
Procedure: as §1

[21] = test system: human tumour cells, gastric 1; assay: colony formation of human tumour cells: gastric 1; format: cell-based
Procedure: as §1

[22] = test system: human tumour cells, colon; assay: colony formation of human tumour cells: colon; format: cell-based
Procedure: as §1

[23] = test system: human tumour cells; conditions: general statement on the colony test; cited from earlier work
[24] = test system: protein kinases; conditions: Bio/Technology, 1990, 8, 132-135; cited from earlier work

T1 sequence (P11799 935-1906): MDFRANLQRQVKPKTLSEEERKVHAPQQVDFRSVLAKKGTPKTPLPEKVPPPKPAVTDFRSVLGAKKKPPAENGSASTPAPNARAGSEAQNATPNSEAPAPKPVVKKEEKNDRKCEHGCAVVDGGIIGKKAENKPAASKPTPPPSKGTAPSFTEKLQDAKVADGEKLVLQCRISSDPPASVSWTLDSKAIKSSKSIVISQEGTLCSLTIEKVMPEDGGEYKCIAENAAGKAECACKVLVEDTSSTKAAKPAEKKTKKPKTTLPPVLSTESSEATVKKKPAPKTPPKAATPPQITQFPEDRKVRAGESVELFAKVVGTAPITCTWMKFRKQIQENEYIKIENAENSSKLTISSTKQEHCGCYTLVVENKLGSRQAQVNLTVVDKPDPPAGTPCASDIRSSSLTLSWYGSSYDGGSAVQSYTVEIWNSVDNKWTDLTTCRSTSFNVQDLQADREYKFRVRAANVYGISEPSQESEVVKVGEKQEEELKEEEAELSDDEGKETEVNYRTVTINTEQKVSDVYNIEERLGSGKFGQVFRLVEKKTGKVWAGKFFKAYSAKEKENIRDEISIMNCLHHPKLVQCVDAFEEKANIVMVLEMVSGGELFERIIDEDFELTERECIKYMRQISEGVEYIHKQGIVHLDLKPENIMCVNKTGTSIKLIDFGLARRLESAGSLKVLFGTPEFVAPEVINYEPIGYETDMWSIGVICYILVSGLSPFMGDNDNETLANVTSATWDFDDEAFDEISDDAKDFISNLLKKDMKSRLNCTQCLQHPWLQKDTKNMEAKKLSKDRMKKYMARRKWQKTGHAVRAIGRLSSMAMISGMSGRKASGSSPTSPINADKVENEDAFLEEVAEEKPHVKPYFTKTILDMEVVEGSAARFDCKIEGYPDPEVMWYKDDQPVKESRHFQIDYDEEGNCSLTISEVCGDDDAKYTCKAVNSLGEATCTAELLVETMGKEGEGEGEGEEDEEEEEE

Which “anti-tumour action, in words” value [1] does the source give for O=C1NC(=O)c2c1c1c3cccc(O)c3[nH]c1c1[nH]c3c(O)cccc3c21 [BE-13193C] here?
The value was “antitumour action”.

With CN(C)CCCn1c2ccc(O)cc2c2c3c(c4c5cc(O)ccc5[nH]c4c21)C(=O)NC3=O [Example 2c] as the compound, how does the IC50 [2] read?
Its IC50 is 2600 nM.

What about the inhibition at 10 µM ([2]; 10^-5 M) of the same compound?
Its inhibition at 10 µM is 75%.

What about the inhibition at 1 µM ([2]; 10^-6 M) of the same compound?
The inhibition at 1 µM was 33%.

And the inhibition at 0.1 µM ([2]; 10^-7 M)?
Its inhibition at 0.1 µM is 5%.

What about the IC50 ([3]; 1 nM MLC kinase, 250 μM ATP, pH 7.2, 20 minutes at 30° C., read-out: inhibition of the protein kinases, MLC-kinase IC50) of the same compound?
The IC50 was 6.1 nM.

And the “ratio of IC50 C-kinase/IC50 MLC-kinase” value ([3]; selectivity factor calculated from the IC50 values)?
The value was 2.3.

What about the IC50 [4] of the same compound?
The IC50 was under 100 nM.

What about the inhibition at 10 µM ([4]; 10^-5 M) of the same compound?
Its inhibition at 10 µM is 97%.

And the inhibition at 1 µM ([4]; 10^-6 M)?
The inhibition at 1 µM was 97%.

What about the inhibition at 0.1 µM ([4]; 10^-7 M) of the same compound?
The inhibition at 0.1 µM was 82%.

And the IC50 [5]?
The IC50 was under 100 nM.

And the inhibition at 10 µM ([5]; 10^-5 M)?
The inhibition at 10 µM was 77%.

What about the inhibition at 1 µM ([5]; 10^-6 M) of the same compound?
Its inhibition at 1 µM is 66%.

What about the inhibition at 0.1 µM ([5]; 10^-7 M) of the same compound?
The inhibition at 0.1 µM was 65%.

And the IC50 [6]?
The IC50 was 36 ± 15 nM.

What about the IC50 [7] of the same compound?
The IC50 was 6000 nM.

What about the inhibition at 10 µM ([7]; 10^-5 M) of the same compound?
Its inhibition at 10 µM is 62%.

What about the inhibition at 1 µM ([7]; 10^-6 M) of the same compound?
Its inhibition at 1 µM is 8%.

What about the inhibition at 0.1 µM ([7]; 10^-7 M) of the same compound?
Its inhibition at 0.1 µM is 0%.

What about the IC50 [8] of the same compound?
The IC50 was under 100 nM.

What about the inhibition at 10 µM ([8]; 10^-5 M) of the same compound?
The inhibition at 10 µM was 99%.

And the inhibition at 1 µM ([8]; 10^-6 M)?
Its inhibition at 1 µM is 94%.

What about the inhibition at 0.1 µM ([8]; 10^-7 M) of the same compound?
Its inhibition at 0.1 µM is 74%.

And the “anti-HIV action, in words” value [9]?
The value was “an anti-HIV action could be demonstrated”.

And the IC50 [10]?
Its IC50 is under 100 nM.

And the inhibition at 10 µM ([10]; 10^-5 M)?
The inhibition at 10 µM was 97%.

What about the inhibition at 1 µM ([10]; 10^-6 M) of the same compound?
Its inhibition at 1 µM is 99%.

And the inhibition at 0.1 µM ([10]; 10^-7 M)?
Its inhibition at 0.1 µM is 90%.

What about the IC50 [11] of the same compound?
Its IC50 is 29 nM.

And the IC50 [12]?
Its IC50 is 210 nM.

And the inhibition at 10 µM ([12]; 10^-5 M)?
Its inhibition at 10 µM is 73%.

What about the inhibition at 1 µM ([12]; 10^-6 M) of the same compound?
Its inhibition at 1 µM is 76%.

What about the inhibition at 0.1 µM ([12]; 10^-7 M) of the same compound?
The inhibition at 0.1 µM was 38%.

What about the IC50 [13] of the same compound?
Its IC50 is 200 nM.

What about the inhibition at 10 µM ([13]; 10^-5 M) of the same compound?
Its inhibition at 10 µM is 96%.

And the inhibition at 1 µM ([13]; 10^-6 M)?
Its inhibition at 1 µM is 75%.

What about the inhibition at 0.1 µM ([13]; 10^-7 M) of the same compound?
Its inhibition at 0.1 µM is 40%.

What about the “cytotoxic action as cause of the anti-HIV action, in words” value [14] of the same compound?
Its value is “the anti-HIV action did not come about due to a cytotoxic action”.

What about the IC50 [15] of the same compound?
Its IC50 is under 100 nM.

And the inhibition at 10 µM ([15]; 10^-5 M)?
The inhibition at 10 µM was 100%.

And the inhibition at 1 µM ([15]; 10^-6 M)?
Its inhibition at 1 µM is 100%.

What about the inhibition at 0.1 µM ([15]; 10^-7 M) of the same compound?
The inhibition at 0.1 µM was 97%.

What about the IC50 [16] of the same compound?
The IC50 was 1500 nM.

And the inhibition at 10 µM ([16]; 10^-5 M)?
The inhibition at 10 µM was 83%.

And the inhibition at 1 µM ([16]; 10^-6 M)?
The inhibition at 1 µM was 44%.

What about the inhibition at 0.1 µM ([16]; 10^-7 M) of the same compound?
The inhibition at 0.1 µM was 38%.

And the IC50 [17]?
The IC50 was 200 nM.

And the inhibition at 10 µM ([17]; 10^-5 M)?
The inhibition at 10 µM was 98%.

What about the inhibition at 1 µM ([17]; 10^-6 M) of the same compound?
The inhibition at 1 µM was 99%.

What about the inhibition at 0.1 µM ([17]; 10^-7 M) of the same compound?
Its inhibition at 0.1 µM is 29%.

What about the IC50 [18] of the same compound?
The IC50 was 14 nM.

What about the “inhibition of tumour cell growth, in words” value [19] of the same compound?
Its value is “the growth of the tumour cells can be inhibited depending upon the concentration”.

And the IC50 [20]?
The IC50 was 120 nM.

And the inhibition at 10 µM ([20]; 10^-5 M)?
The inhibition at 10 µM was 89%.

And the inhibition at 1 µM ([20]; 10^-6 M)?
The inhibition at 1 µM was 81%.

And the inhibition at 0.1 µM ([20]; 10^-7 M)?
The inhibition at 0.1 µM was 48%.

What about the IC50 [21] of the same compound?
The IC50 was 1200 nM.

And the inhibition at 10 µM ([21]; 10^-5 M)?
Its inhibition at 10 µM is 99%.

And the inhibition at 1 µM ([21]; 10^-6 M)?
The inhibition at 1 µM was 47%.

And the inhibition at 0.1 µM ([21]; 10^-7 M)?
The inhibition at 0.1 µM was 29%.

What about the IC50 [22] of the same compound?
Its IC50 is 1700 nM.

What about the inhibition at 10 µM ([22]; 10^-5 M) of the same compound?
Its inhibition at 10 µM is 94%.

What about the inhibition at 1 µM ([22]; 10^-6 M) of the same compound?
Its inhibition at 1 µM is 37%.

And the inhibition at 0.1 µM ([22]; 10^-7 M)?
Its inhibition at 0.1 µM is 8%.

Which “prevention of colony formation, in words” value [23] does the source give for COc1cccc2c1C(=O)c1c(O)c3c(c(O)c1C2=O)C[C@@](O)(C(=O)CO)C[C@@H]3O[C@H]1C[C@H](N)[C@H](O)[C@H](C)O1 [adriamycin] here?
The value was “able to prevent this colony formation”.

With CO[C@H]1[C@H](O)[C@@H](O)[C@H](n2c3c(Cl)cccc3c3c4c(c5c6cccc(Cl)c6[nH]c5c32)C(=O)NC4=O)O[C@@H]1CO [rebeccamycin] as the compound, how does the “anti-tumour action, in words” value [1] read?
Its value is “anti-tumour action”.

And the “inhibition of protein kinases, in words” value [24]?
Its value is “do not inhibit protein kinases”.
